Laboratory results published in ChEMBL document CHEMBL3885881, “DrugMatrix”.

Organism: Rattus norvegicus
Assay: DrugMatrix - Regimen: Daily Repeat
Type: toxicity, organism-based, Sprague-Dawley
Design: regimen Daily Repeat, gender Male, age 6-8 weeks
Settings: in vivo, po, route oral GAVAGE, vehicle .5 % CMC; for BASOPHIL / EOSINOPHIL / ERYTHROCYTE COUNT / HEMATOCRIT / HEMOGLOBIN / LEUKOCYTE COUNT / LYMPHOCYTE / MEAN CORPUSCULAR HEMOGLOBIN / MEAN CORPUSCULAR HEMOGLOBIN CONCENTRATION / MEAN CORPUSCULAR VOLUME / MONOCYTE / NEUTROPHIL / PLATELET COUNT: tissue Blood; for ALANINE AMINOTRANSFERASE / ALBUMIN / ALKALINE PHOSPHATASE / ASPARTATE AMINOTRANSFERASE / BLOOD UREA NITROGEN / CHLORIDE / CHOLESTEROL / CREATINE PHOSPHOKINASE / CREATININE / GLUCOSE / PHOSPHORUS / POTASSIUM / SODIUM / TOTAL BILIRUBIN / TOTAL PROTEIN: tissue Plasma
[1] = 0 mg/kg, 72 h, dose level Control, time 3 day
[2] = 0 mg/kg, 120 h, dose level Control, time 5 day
[3] = 5 mg/kg, 72 h, dose level Low, time 3 day
[4] = 5 mg/kg, 120 h, dose level Low, time 5 day

**Q.** What does the source list for `CN1C(=O)CN=C(c2ccccc2)c2cc([N+](=O)[O-])ccc21` [NIMETAZEPAM]?
**A.** BASOPHIL [1]: 1.52%; EOSINOPHIL [1]: 0.98%; ERYTHROCYTE COUNT [1]: 6.96 x10E6/uL; HEMATOCRIT [1]: 44.65%; HEMOGLOBIN [1]: 13.62 G/DL; LEUKOCYTE COUNT [1]: 9.83 x10E3/uL; LYMPHOCYTE [1]: 76.48%; MEAN CORPUSCULAR HEMOGLOBIN [1]: 19.57 pg; MEAN CORPUSCULAR HEMOGLOBIN CONCENTRATION [1]: 30.47 G/DL; MEAN CORPUSCULAR VOLUME [1]: 64.22 fL; MONOCYTE [1]: 2.13%; NEUTROPHIL [1]: 18.6%; PLATELET COUNT [1]: 1217.17 x10E3/uL; ALANINE AMINOTRANSFERASE [1]: 41 u/L; ALBUMIN [1]: 3.77 G/DL; ALKALINE PHOSPHATASE [1]: 411.83 u/L; ASPARTATE AMINOTRANSFERASE [1]: 62.83 u/L; BLOOD UREA NITROGEN [1]: 15.17 mg/dL; CHLORIDE [1]: 104.33 MEQ/L; CHOLESTEROL [1]: 71.17 mg/dL; CREATINE PHOSPHOKINASE [1]: 123.5 u/L; CREATININE [1]: 0.55 mg/dL; GLUCOSE [1]: 182.67 mg/dL; PHOSPHORUS [1]: 11.23 mg/dL; POTASSIUM [1]: 7.03 MEQ/L; SODIUM [1]: 148 MEQ/L; TOTAL BILIRUBIN [1]: 0.57 mg/dL; TOTAL PROTEIN [1]: 6.85 G/DL; BASOPHIL [2]: 1.35%; EOSINOPHIL [2]: 0.43%; ERYTHROCYTE COUNT [2]: 6.96 x10E6/uL; HEMATOCRIT [2]: 44.35%; HEMOGLOBIN [2]: 13.98 G/DL; LEUKOCYTE COUNT [2]: 9.45 x10E3/uL; LYMPHOCYTE [2]: 80.83%; MEAN CORPUSCULAR HEMOGLOBIN [2]: 20.1 pg; MEAN CORPUSCULAR HEMOGLOBIN CONCENTRATION [2]: 31.52 G/DL; MEAN CORPUSCULAR VOLUME [2]: 63.72 fL; MONOCYTE [2]: 2.37%; NEUTROPHIL [2]: 14.05%; PLATELET COUNT [2]: 1298 x10E3/uL; ALANINE AMINOTRANSFERASE [2]: 42.17 u/L; ALBUMIN [2]: 3.77 G/DL; ALKALINE PHOSPHATASE [2]: 419 u/L; ASPARTATE AMINOTRANSFERASE [2]: 66.67 u/L; BLOOD UREA NITROGEN [2]: 16.67 mg/dL; CHLORIDE [2]: 103.17 MEQ/L; CHOLESTEROL [2]: 66.33 mg/dL; CREATINE PHOSPHOKINASE [2]: 148.33 u/L; CREATININE [2]: 0.58 mg/dL; GLUCOSE [2]: 196.83 mg/dL; PHOSPHORUS [2]: 11.8 mg/dL; POTASSIUM [2]: 6.47 MEQ/L; SODIUM [2]: 148.33 MEQ/L; TOTAL BILIRUBIN [2]: 0.53 mg/dL; TOTAL PROTEIN [2]: 6.77 G/DL; BASOPHIL [3]: 2.83%; EOSINOPHIL [3]: 0.3%; ERYTHROCYTE COUNT [3]: 7.13 x10E6/uL; HEMATOCRIT [3]: 44.5%; HEMOGLOBIN [3]: 13.9 G/DL; LEUKOCYTE COUNT [3]: 11.4 x10E3/uL; LYMPHOCYTE [3]: 76.5%; MEAN CORPUSCULAR HEMOGLOBIN [3]: 19.5 pg; MEAN CORPUSCULAR HEMOGLOBIN CONCENTRATION [3]: 31.2 G/DL; MEAN CORPUSCULAR VOLUME [3]: 62.43 fL; MONOCYTE [3]: 2.87%; NEUTROPHIL [3]: 16.73%; PLATELET COUNT [3]: 1489.33 x10E3/uL; ALANINE AMINOTRANSFERASE [3]: 36.67 u/L; ALBUMIN [3]: 3.67 G/DL; ALKALINE PHOSPHATASE [3]: 291 u/L; ASPARTATE AMINOTRANSFERASE [3]: 57 u/L; BLOOD UREA NITROGEN [3]: 11.67 mg/dL; CHLORIDE [3]: 102.67 MEQ/L; CHOLESTEROL [3]: 68.67 mg/dL; CREATINE PHOSPHOKINASE [3]: 130.67 u/L; CREATININE [3]: 0.5 mg/dL; GLUCOSE [3]: 173 mg/dL; PHOSPHORUS [3]: 11.97 mg/dL; POTASSIUM [3]: 6.37 MEQ/L; SODIUM [3]: 149.67 MEQ/L; TOTAL BILIRUBIN [3]: 0.27 mg/dL; TOTAL PROTEIN [3]: 6.6 G/DL; BASOPHIL [4]: 0.95%; EOSINOPHIL [4]: 2.55%; ERYTHROCYTE COUNT [4]: 7 x10E6/uL; HEMATOCRIT [4]: 43.15%; HEMOGLOBIN [4]: 13.8 G/DL; LEUKOCYTE COUNT [4]: 10.5 x10E3/uL; LYMPHOCYTE [4]: 75.25%; MEAN CORPUSCULAR HEMOGLOBIN [4]: 19.7 pg; MEAN CORPUSCULAR HEMOGLOBIN CONCENTRATION [4]: 32 G/DL; MEAN CORPUSCULAR VOLUME [4]: 61.5 fL; MONOCYTE [4]: 2.15%; NEUTROPHIL [4]: 18.45%; PLATELET COUNT [4]: 1383 x10E3/uL; ALANINE AMINOTRANSFERASE [4]: 34.67 u/L; ALBUMIN [4]: 3.57 G/DL; ALKALINE PHOSPHATASE [4]: 351 u/L; ASPARTATE AMINOTRANSFERASE [4]: 62.67 u/L; BLOOD UREA NITROGEN [4]: 11.67 mg/dL; CHLORIDE [4]: 102.67 MEQ/L; CHOLESTEROL [4]: 62.67 mg/dL; CREATINE PHOSPHOKINASE [4]: 168.67 u/L; CREATININE [4]: 0.6 mg/dL; GLUCOSE [4]: 170.33 mg/dL; PHOSPHORUS [4]: 13 mg/dL; POTASSIUM [4]: 7.1 MEQ/L; SODIUM [4]: 147 MEQ/L; TOTAL BILIRUBIN [4]: 0.4 mg/dL; TOTAL PROTEIN [4]: 6.37 G/DL
